In patent US7507727B2, “Substituted quinobenzoxazine analogs and methods of using thereof” (Cylene Pharmaceuticals, Inc., priority 2003, dated 2009):
Read-outs that look alike come from different tables or passages of the source.

What was measured:
HeLa cells = assay: MTS cell proliferation and/or cytotoxicity assay; assay type: cell-based, Human; details: concentration at which 50% of antiproliferative cell response is seen, 3 days incubation, read-out: MTS Data Hella
Protocol: Cell culture. Human cervical epithelial cells (HeLa cells) were obtained from American Type Culture Collection (Manassas, Va.). Cells were grown in Eagle's minimum essential medium (MEM, Hyclone, Utah) supplemented with 2 mM Glutamine, 0.1 mM nonessential amino acid, 1 mM Na Pyruvate, 1.5 g/L NaHCO3, 50 mg/L gentamicin, and 10% fetal bovine serum (Hyclone, USA) in a humidified atmosphere of 5% CO2 at 37° C.
MTS assays. Antiproliferative effects of the compounds were tested by the CellTiter 96 AQueous assay (Promega, WI), which is a calorimetric assay for determining the number of viable cells. (See, e.g., Wang, L., et al., Methods Cell Sci (1996) 18:249-255). In one example, cells (4,500 cells/well) were seeded on 96 well flat bottom plates (Corning, N.Y.) in 100 μl of culture medium without any anticancer drug on day 0, and the culture medium was exchanged for that //contained anticancer drugs at various concentrations on day 1. After incubation for 3 days under normal growth conditions (on day 4), the monolayers were washed once in PBS, and the medium was switched to 100 μl of PBS in each of the 96 well plate. After mixing MTS and PMS at the ratio of 20:1, 20 μl of MTS/PMS solution was added to each of the 96 well plate and incubated for 4 hours in a humidified atmosphere of 5% CO2 at 37° C. The absorbance was read at 490 nm using FLUOstar Galaxy 96 well plate reader (BMG Labtechnologies, Germany). μM concentrations (MTS data) reported in Table 1 are concentrations at which 50% of antiproliferative cell response is seen.

[1] = biological target: c-Myc template DNA (c-myc quadruplex); assay: Quadruplex binding / stop assay (Taq polymerase arrest, capillary electrophoresis); details: read-out: Stop Data c-Myc μM; concentration at which 50% of the DNA was arrested (arrested:full-length 1:1)

SMILES	IC50 (HeLa cells; Homo sapiens, HeLa, 72 h)	IC50 [1]	IC50 (HeLa cells)
N[C@@H]1CCN(c2c(F)cc3c(=O)c(C(=O)NCCCN4CCOCC4)cn4c3c2Oc2cc3c(cc2-4)oc2ccccc23)C1 [compound 375]	2.7 µM	0.75 µM	
O=C(CCN1CCCC1)N[C@@H]1CCN(c2c(F)cc3c(=O)c(C(=O)NCCN4CCCC4)cn4c3c2Oc2cc3c(cc2-4)oc2ccccc23)C1 [compound 376]	2.4 µM	0.75 µM	
Nc1c(F)c(NCCCN2CCOCC2)c2c3c1c(=O)c(C(=O)NCCN1CCCC1)cn3-c1cc3ccccc3cc1O2 [compound 377]	2.2 µM	0.75 µM	
CN1CCCC1CCNC(=O)c1cn2c3c(c(NCCc4ccc(O)cc4)c(F)cc3c1=O)Oc1cc3ccccc3cc1-2 (centres unmarked) [compound 378]	2.1 µM	0.75 µM	
NC1CCN(c2c(F)cc3c(=O)c(C(=O)NCCc4cnc[nH]4)cn4c3c2Oc2cc3ccccc3cc2-4)C1 (centres unmarked) [compound 379]	1.9 µM	0.75 µM	
CN1CCCC1CCNC(=O)c1cn2c3c(c(NCCCN4CCOCC4)c(F)c(N)c3c1=O)Oc1cc3ccccc3cc1-2 (centres unmarked) [compound 380]	1.8 µM	0.75 µM	
CN1CCCC1CCNC(=O)c1cn2c3c(c(NCCc4ccc(O)c(O)c4)c(F)cc3c1=O)Oc1cc3ccccc3cc1-2 (centres unmarked) [compound 381]	1.8 µM	0.75 µM	
C[C@@H](O)CNc1c(F)cc2c(=O)c(C(=O)NCCC3CCCN3C)cn3c2c1Oc1cc2ccccc2cc1-3 (some centres unmarked) [compound 382]	1.8 µM	0.75 µM	
CN1CCN(CCCNC(=O)c2cn3c4c(c(N5CCC(NC(=O)OC(C)(C)C)C5)c(F)cc4c2=O)Oc2cc4c(cc2-3)oc2ccccc24)CC1 (centres unmarked) [compound 383]	0.37 µM	0.75 µM	
CC(C)(C)OC(=O)NC1CCN(c2c(F)cc3c(=O)c(C(=O)NCCN4CCCC4)cn4c3c2Oc2cc3c(cc2-4)oc2ccccc23)C1 (centres unmarked) [compound 384]	0.37 µM	0.75 µM	
CCN(CC)CCCC(C)NC(=O)c1cn2c3c(c(N4CC5CCCNC5C4)c(F)cc3c1=O)Oc1cc3ccccc3cc1-2 (centres unmarked) [compound 385]	0.36 µM	0.75 µM	
N[C@@H]1CCN(c2c(F)cc3c(=O)c(C(=O)NCCCN4CCOCC4)cn4c3c2Oc2cc3ccccc3cc2-4)C1 [compound 386]	0.34 µM	0.75 µM	
CC1CCCCN1CCCNC(=O)c1cn2c3c(c(N4CCC(N)C4)c(F)cc3c1=O)Oc1cc3ccccc3cc1-2 (centres unmarked) [compound 387]	0.33 µM	0.75 µM	
CN1CCC(Nc2c(F)cc3c(=O)c(C(=O)NCCC4CCCN4C)cn4c3c2Oc2cc3ccccc3cc2-4)CC1 (centres unmarked) [compound 388]	0.31 µM	0.75 µM	
CN1CCCC1CCNC(=O)c1cn2c3c(c(N4CCC(NC(=O)OC(C)(C)C)C4)c(F)cc3c1=O)Oc1cc3c(cc1-2)oc1ccccc13 (centres unmarked) [compound 389]	0.29 µM	0.75 µM	
N[C@@H]1CCN(c2c(F)cc3c(=O)c(C(=O)NCCN4CCOCC4)cn4c3c2Oc2cc3ccccc3cc2-4)C1 [compound 390]	0.24 µM	0.75 µM	
CN1CCCC1CCNC(=O)c1cn2c3c(c(NCC4(O)CCCCC4)c(F)cc3c1=O)Oc1cc3ccccc3cc1-2 (centres unmarked) [compound 391]	0.24 µM	0.75 µM	
CN1CCCC1CCNC(=O)c1cn2c3c(c(NCC(O)c4ccccc4)c(F)cc3c1=O)Oc1cc3ccccc3cc1-2 (centres unmarked) [compound 392]	0.19 µM	0.75 µM	
CN1CCCC1CCNC(=O)c1cn2c3c(c(N4CCC(N)C4)c(F)cc3c1=O)Oc1cc3ccccc3cc1-2 (centres unmarked) [compound 472]		0.62 µM	3.3 µM
CN1CCCC1CCNC(=O)c1cn2c3c(c(N4CC[C@H](N)C4)c(F)cc3c1=O)Oc1cc3ccccc3cc1-2 (some centres unmarked) [compound 474]	0.37 µM	0.58 µM	
CN(C)CCCCNC(=O)c1cn2c3c(c(N4CC[C@H](N)C4)c(F)cc3c1=O)Oc1cc3ccccc3cc1-2 [compound 475]	0.24 µM	0.58 µM	
O=C(NCCN1CCCC1)c1cn2c3c(c(NCCN4CCCC4)c(F)cc3c1=O)Oc1cc3c(cc1-2)oc1ccccc13 [compound 477]	2.1 µM	0.55 µM	
O=C(NCCN1CCCC1)c1cn2c3cc4oc5cc([N+](=O)[O-])ccc5[nH]c4cc3oc3c(NCCN4CCCC4)c(F)cc(c1=O)c32 [compound 479]	7.4 µM	0.5 µM	

SMILES	IC50 (HeLa cells; Homo sapiens, HeLa, 72 h)	IC50 [1]	IC50 (HeLa cells)
CN(C)CCCCNC(=O)c1cn2c3cc4c(cc3oc3c(N5CC[C@H](NC(=O)OC(C)(C)C)C5)c(F)cc(c1=O)c32)c(=O)c1ccccc14 [compound 480]	3.7 µM	0.5 µM	
CN1CCN(CCCNc2c(F)cc3c(=O)c(C(=O)NCCCn4ccnc4)cn4c3c2Oc2cc3c(cc2-4)oc2ccccc23)CC1 [compound 481]	3.6 µM	0.5 µM	
O=C(CN1CCCCC1)N[C@@H]1CCN(c2c(F)cc3c(=O)c(C(=O)NCCN4CCCC4)cn4c3c2Oc2cc3c(cc2-4)oc2ccccc23)C1 [compound 482]	3.4 µM	0.5 µM	
CN1CCCC1CCNC(=O)c1cn2c3c(c(N4CC[C@@H](NC(=O)CCN5CCCC5)C4)c(F)cc3c1=O)Oc1cc3c(cc1-2)oc1ccccc13 (some centres unmarked) [compound 483]	3.2 µM	0.5 µM	
CN1CCCC1CCNC(=O)c1cn2c3c(c(N4CC[C@@H](NC(=O)CCN5CCCCC5)C4)c(F)cc3c1=O)Oc1cc3c(cc1-2)oc1ccccc13 (some centres unmarked) [compound 484]	3.1 µM	0.5 µM	
NCCCNC(=O)c1cn2c3c(c(N4CC[C@@H](N)C4)c(F)cc3c1=O)Oc1cc3ccccc3cc1-2 [compound 485]	0.5 µM	0.5 µM	
CN1CCCC1CCNC(=O)c1cn2c3c(c(NC4CN5CCC4CC5)c(F)cc3c1=O)Oc1cc3ccccc3cc1-2 (centres unmarked) [compound 486]	0.39 µM	0.5 µM	
CC1(C)CC(NC(=O)c2cn3c4c(c(N5CC6CCCNC6C5)c(F)cc4c2=O)Oc2cc4ccccc4cc2-3)CC(C)(C)N1 (centres unmarked) [compound 487]	0.18 µM	0.5 µM	
CN(C)CC(C)(C)CNC(=O)c1cn2c3c(c(N4CC5CCCNC5C4)c(F)cc3c1=O)Oc1cc3ccccc3cc1-2 (centres unmarked) [compound 493]	0.4 µM	0.44 µM	
CN(C)CCCCNc1c(F)cc2c(=O)c(C(=O)NCCC3CCCN3C)cn3c2c1Oc1c-3ccc2ccccc12 (centres unmarked) [compound 496]	4 µM	0.41 µM	
CN1CCCC1CCNc1c(F)cc2c(=O)c(C(=O)NCCN3CCCC3)cn3c2c1Oc1c-3ccc2ccccc12 (centres unmarked) [compound 497]	2.1 µM	0.41 µM	
CN(C)CCCCNC(=O)c1cn2c3c(c(N4CC[C@@H](NC(=O)CCNCCCn5ccnc5)C4)c(F)cc3c1=O)Oc1cc3c(cc1-2)oc1ccccc13 [compound 500]	5.6 µM	0.375 µM	
CN(C)CCCCNc1c(F)cc2c(=O)c(C(=O)NCCC3CCCN3C)cn3c4cc5c(cc4oc1c23)c(=O)c1ccccc15 (centres unmarked) [compound 501]	4.2 µM	0.375 µM	
O=C(NCCCN1CCOCC1)c1cn2c3cc4c(cc3oc3c(NCCN5CCCC5)c(F)cc(c1=O)c32)c(=O)c1ccccc14 [compound 502]	4 µM	0.375 µM	
CN(C)/C=N/CCCCNC(=O)c1cn2c3c(c(N4CC[C@@H](N)C4)c(F)cc3c1=O)Oc1cc3ccccc3cc1-2 [compound 503]	4 µM	0.375 µM	
O=C(CCN1CCCC1)N[C@@H]1CCN(c2c(F)cc3c(=O)c(C(=O)NCCN4CCOCC4)cn4c3c2Oc2cc3c(cc2-4)oc2ccccc23)C1 [compound 504]	3.4 µM	0.375 µM	
CN1CCN(CC(=O)N[C@@H]2CCN(c3c(F)cc4c(=O)c(C(=O)NCCN5CCCC5)cn5c4c3Oc3cc4c(cc3-5)oc3ccccc34)C2)CC1 [compound 505]	3.4 µM	0.375 µM	
O=C(CN1CCCC1)N[C@@H]1CCN(c2c(F)cc3c(=O)c(C(=O)NCCN4CCCC4)cn4c3c2Oc2cc3c(cc2-4)oc2ccccc23)C1 [compound 506]	3.4 µM	0.375 µM	
CN(C)CCCCNC(=O)c1cn2c3c(c(N4CC[C@@H](NC(=O)CCN5CCCCC5)C4)c(F)cc3c1=O)Oc1cc3c(cc1-2)oc1ccccc13 [compound 507]	3.3 µM	0.375 µM	
CN1CCN(CCCNC(=O)c2cn3c4c(c(N5CC[C@@H](NC(=O)CCN6CCCCC6)C5)c(F)cc4c2=O)Oc2cc4c(cc2-3)oc2ccccc24)CC1 [compound 508]	3.2 µM	0.375 µM	
CN(C)CCCCNc1c(F)cc2c(=O)c(C(=O)NCCCn3ccnc3)cn3c2c1Oc1cc2c(cc1-3)oc1ccccc12 [compound 509]	3.1 µM	0.375 µM	
CN(C)CCCCNC(=O)c1cn2c3c(c(N4CC[C@@H](NC(=O)CCN5CCCC5)C4)c(F)cc3c1=O)Oc1cc3c(cc1-2)oc1ccccc13 [compound 510]	3.1 µM	0.375 µM	
N[C@H]1CCN(c2c(F)cc3c(=O)c(C(=O)NCCCN4CCOCC4)cn4c5cc6c(cc5oc2c34)c(=O)c2ccccc26)C1 [compound 511]	3.1 µM	0.375 µM	
